Patent publication US20250241347A1, “COMPOSITIONS AND METHODS FOR TASTE MODULATION” (INTERNATIONAL FLAVORS & FRAGRANCES INC., priority 2019, published 2025)

Experiments:
[1] = Masking effect on benzoic acid, trained panel; parameters: species or system human; settings: base benzoic acid 250 ppm in water; for Masking Intensity: panel average, scale 0-5
Excerpt: (§1) Preparation of Test Samples: […], oroxylin A-7 glucouronide, wogonoside, baicalein, oroxylin A and wogonin were purchased commercially. S. baicalensis extract (“Extract”) and cabohydrase-treated S. baicalensis extract (“Treated Extract”) were obtained as above in Example 1.
(§2) Subsequently, all compounds and extracts were applied to different bases for evaluating their off-taste masking functions.
(§3) Testing Procedure: The masking effects on the off-tastes (bitterness, sourness, astringency, lingering and drying aftertaste, etc.) associated with various food components was evaluated by a group of 16 trained panelist. Each provided a rank of masking intensity using the intensity scales of 0 to 5, where 0 represents “no masking effect,” 1 represents “minimal masking intensity” and 5 represents “the most masking intensity.” The average of the reported making intensity is presented in the following examples.
A base solution of benzoic acid was prepared in water (250 ppm). […] The flavor profile of the benzoic acid solutions with compounds or extracts was further evaluated and is reported in the following: […]

[2] = Masking effect on sorbic acid, trained panel; parameters: species or system human; settings: base sorbic acid 150 ppm in water; for Masking Intensity: panel average, scale 0-5
Excerpt: as §1, §2, §3
A base solution of sorbic acid was prepared in water (150 ppm). […] The flavor profile of the sorbic acid solutions with compounds or extracts were further evaluated and is reported in the following: […]

[3] = Masking effect on Reb A, trained panel; parameters: species or system human; settings: base Reb A 200 ppm in water; for Masking Intensity: panel average, scale 0-5
Excerpt: as §1, §2, §3
A base solution of Reb A was prepared in water (200 ppm). […] The flavor profile of the Reb A solutions with compounds or extracts were further evaluated and is reported in the following: […]

[4] = Masking effect on pea protein, trained panel; parameters: species or system human; settings: base TRUPRO pea protein 5% in water, test sample 0.5 ppm; for Masking Intensity: panel average, scale 0-5
Excerpt: as §1, §2, §3
A base solution of TRUPRO® pea protein (Solae LLC) was prepared in water (5%). […] The flavor profile of the pea protein solutions with compounds or extracts were further evaluated and is reported in the following: […]

[5] = Masking effect on citric acid, trained panel; parameters: species or system human; settings: base citric acid 300 ppm in water; for Masking Intensity: panel average, scale 0-5
Excerpt: as §1, §2, §3
A base solution of citric acid was prepared in water (300 ppm). […] The flavor profile of the citric acid solutions with compounds or extracts were further evaluated and is reported in the following: […]

[6] = Masking effect on Acesulfame-K, trained panel; parameters: species or system human; settings: base Acesulfame-K 300 ppm in water; for Masking Intensity: panel average, scale 0-5
Excerpt: as §1, §2, §3
A base solution of Acesulfame-K was prepared in water (300 ppm). […] The flavor profile of the Acesulfame-K solutions with compounds or extracts were further evaluated and is reported in the following: […]

[7] = Masking effect on Reb M, trained panel; parameters: species or system human; settings: base Reb M 200 ppm in water, test sample 0.5 ppm; for Masking Intensity: panel average, scale 0-5
Excerpt: as §1, §2, §3
A base solution of Reb M was prepared in water (200 ppm). […] The flavor profile of the Reb M solutions with compounds or extracts were further evaluated and is reported in the following: […]

[8] = Taste modulating activity of the individual compounds; settings: for taste modulating activity: individual compounds, Example 1; for taste modulation effect: flavone aglycones versus corresponding flavone glycosides
Protocol: With bio-transformation, most baicalin was converted to baicalein; oroxylin A glucuronide was converted to oroxylin A; and wogonoside was converted to wogonin. The activity of the individual compounds was also analyzed for taste modulating activity.

healthy subjects = settings: oral doses in the range of 100-2800 mg; cited from earlier work

## O=c1cc(-c2ccccc2)oc2cc(O)c(O)c(O)c12 [Baicalein, 5,6,7-trihydroxyflavone]
[1]; test sample 0.5 ppm
  Masking Intensity: 3
[2]; test sample 0.001 ppm
  Masking Intensity: 0
[2]; test sample 0.01 ppm
  Masking Intensity: 1
[2]; test sample 0.1 ppm
  Masking Intensity: 2
[2]; test sample 0.5 ppm
  Masking Intensity: 3
[2]; test sample 1 ppm
  Flavor Profile: Reduced astringency, sourness, and drying
  Masking Intensity: 4
[2]; test sample 10 ppm
  Flavor Profile: Reduced astringency, sourness, and drying
  Masking Intensity: 4
[2]; test sample 50 ppm
  Flavor Profile: Reduced astringency, sourness, and drying
  Masking Intensity: 3
[3]; test sample 0.5 ppm
  Masking Intensity: 3
[4]
  Flavor Profile: Reduced astringency and bitterness, less
  Masking Intensity: 3
[5]; test sample 0.01 ppm
  Masking Intensity: 1
[5]; test sample 0.1 ppm
  Flavor Profile: Slightly reduced tart taste
  Masking Intensity: 2
[5]; test sample 0.5 ppm
  Flavor Profile: Reduced tart taste
  Masking Intensity: 3
[5]; test sample 1 ppm
  Flavor Profile: Reduced tart taste
  Masking Intensity: 4
[5]; test sample 10 ppm
  Flavor Profile: Reduced tart taste, very slight bitterness
  Masking Intensity: 3
[5]; test sample 50 ppm
  Flavor Profile: Reduced tart taste, noticeable bitterness
  Masking Intensity: 2
[6]; test sample 0.5 ppm
  Flavor Profile: Slightly reduced bitterness and lingering
  Masking Intensity: 2
[7]
  Flavor Profile: Slightly reduced bitterness and lingering
  Masking Intensity: 3
[8]
  taste modulating activity: more active
Healthy subjects
  safety and tolerability: safe and well-tolerated

## O=C(O)C1OC(Oc2cc3oc(-c4ccccc4)cc(=O)c3c(O)c2O)C(O)C(O)C1O (centres unmarked) [Baicalin, 5,6-dihydroxy-7-O-glucuronide flavone, reference compound]
[1]; test sample 0.5 ppm
  Masking Intensity: 1
[2]; test sample 0.5 ppm
  Masking Intensity: 1
[3]; test sample 0.5 ppm
  Masking Intensity: 1
[4]
  Masking Intensity: 1
[5]; test sample 0.5 ppm
  Masking Intensity: 1
[6]; test sample 0.5 ppm
  Masking Intensity: 1
[7]
  Masking Intensity: 1
[8]
  taste modulation effect: weak taste modulation effect
  taste modulating activity: some activity

## COc1c(O)cc2oc(-c3ccccc3)cc(=O)c2c1O [Oroxylin A, 5,7-dihydroxy-6-methoxyflavone]
[1]; test sample 0.001 ppm
  Masking Intensity: 0
[1]; test sample 0.01 ppm
  Masking Intensity: 1
[1]; test sample 0.1 ppm
  Masking Intensity: 3
[1]; test sample 0.5 ppm
  Flavor Profile: Reduced astringency, sourness, and drying
  Masking Intensity: 4
[1]; test sample 1 ppm
  Flavor Profile: Reduced astringency, sourness, and drying
  Masking Intensity: 5
[1]; test sample 10 ppm
  Flavor Profile: Reduced astringency, sourness, and drying
  Masking Intensity: 4
[1]; test sample 50 ppm
  Flavor Profile: Reduced astringency, sourness, and drying
  Masking Intensity: 3
[2]; test sample 0.5 ppm
  Flavor Profile: Reduced astringency, sourness, and drying
  Masking Intensity: 4
[3]; test sample 0.01 ppm
  Flavor Profile: Slightly reduced astringency, licorice flavor
  Masking Intensity: 2
[3]; test sample 0.1 ppm
  Masking Intensity: 3
[3]; test sample 0.5 ppm
  Masking Intensity: 5
[3]; test sample 10 ppm
  Masking Intensity: 4
[3]; test sample 50 ppm
  Masking Intensity: 2
[4]
  Flavor Profile: Reduced astringency and bitterness, less
  Masking Intensity: 4
[5]; test sample 0.5 ppm
  Flavor Profile: Reduced tart taste, more pleasant
  Masking Intensity: 5
[6]; test sample 0.01 ppm
  Masking Intensity: 1
[6]; test sample 0.1 ppm
  Flavor Profile: Reduced bitterness and lingering aftertaste
  Masking Intensity: 3
[6]; test sample 0.5 ppm
  Flavor Profile: Reduced bitterness and lingering aftertaste,
  Masking Intensity: 5
[6]; test sample 10 ppm
  Flavor Profile: Reduced lingering aftertaste, very slight
  Masking Intensity: 4
[6]; test sample 50 ppm
  Flavor Profile: Reduced lingering aftertaste, noticeable
  Masking Intensity: 2
[7]
  Flavor Profile: Reduced bitterness and lingering aftertaste,
  Masking Intensity: 5
[8]
  taste modulating activity: more active

## COc1c(OC2OC(C(=O)O)C(O)C(O)C2O)cc2oc(-c3ccccc3)cc(=O)c2c1O [Oroxylin A-7 glucuronide, 5,7-dihydroxy-6-methoxyflavone-7-O-β-D-glucuronopyranoside, reference compound]
[1]; test sample 0.5 ppm
  Masking Intensity: 1
[2]; test sample 0.5 ppm
  Flavor Profile: Slightly reduced drying aftertaste
  Masking Intensity: 2
[3]; test sample 0.5 ppm
  Flavor Profile: Slightly reduced astringency, licorice flavor
  Masking Intensity: 1
[4]
  Masking Intensity: 1
[5]; test sample 0.5 ppm
  Masking Intensity: 1
[6]; test sample 0.5 ppm
  Masking Intensity: 1
[7]
  Flavor Profile: Slightly reduced bitterness and lingering
  Masking Intensity: 2
[8]
  taste modulation effect: weak taste modulation effect
  taste modulating activity: some activity

## COc1c(OC2OC(C(=O)O)C(O)C(O)C2O)cc(O)c2c(=O)cc(-c3ccccc3)oc12 [Wogonoside, wogonin 7-O-β-D-glucuronide, reference compound]
[1]; test sample 0.5 ppm
  Masking Intensity: 1
[2]; test sample 0.5 ppm
  Masking Intensity: 2
[3]; test sample 0.5 ppm
  Flavor Profile: Slightly reduced astringency, licorice flavor
  Masking Intensity: 1
[4]
  Flavor Profile: Slightly reduced astringency and bitterness,
  Masking Intensity: 2
[5]; test sample 0.5 ppm
  Masking Intensity: 1
[6]; test sample 0.5 ppm
  Masking Intensity: 1
[7]
  Masking Intensity: 1
[8]
  taste modulation effect: weak taste modulation effect
  taste modulating activity: some activity
